Results reported in article PMC10254843, “Discovery of New 2-Phenylamino-3-acyl-1,4-naphthoquinones as Inhibitors of Cancer Cells Proliferation: Searching for Intra-Cellular Targets Playing a Role in Cancer Cells Survival” (Molecules, 2023).

Experiments:
[1] = test system: HEK-293 cells/tumour cells; assay: Mean selective index, HEK-293 vs tumour cells; type: cell-based, human; conditions: MSI = IC50 values HEK-293 cells/IC50 values tumour cells
Protocol: (§1) The cytotoxicity of the compounds 1–14 was assessed by following the reduction of MTT (3-(4,5-Dimethylthiazol-2-yl)-2,5-diphenyltetrazolium bromide) to formazan blue. Cells were seeded into 96-well plates at a density of 10,000 cells/well for 24 h and then they were further incubated for 24 h with or without the quinones. Doxorubicin was used as a standard chemotherapeutic agent (positive control). Cells were washed twice with warm PBS and further incubated with MTT (0.5 mg/mL) for 2 h at 37 °C. Blue formazan crystals were solubilized by adding 100 µL DMSO/well, and the optical density of colored solutions was subsequently read at 550 nm in a microplate reader Tecan infinite M200 Pro (Männedorf, Switzerland). The compounds 1–14 were dissolved in DMSO (stock solution at 100 mM) and further diluted to be evaluated at the following concentrations: 0 μM, 1 μM, 10 μM, 20 μM, 40 μM, 60 μM, 80 μM and 100 μM. Results are expressed as % of MTT reduction compared to untreated control conditions. The IC50 values were calculated using the GraphPad Prism 8.0.2 software (San Diego, CA, USA).

[2] = test system: T24 (Urinary bladder cancer cells); assay: MTT cell survival assay, T24 urinary bladder cancer cells; type: cell-based; conditions: Homo sapiens; MTT test; cells incubated at 37 °C for 48 h (Table 1 footnote); mean ± SEM, n = 3
Protocol: (§2) Human cancer cell lines from bladder (T24), prostate (DU–145), breast (MCF–7) and non-tumor HEK-293 cells were obtained from the American Type Culture Collection (ATCC, Manassas, VA, USA). The cultures were maintained at a density of 1–2 × 10^5 cells/mL and the medium was changed at 48- and 72-h intervals. They were cultured in high-glucose Dulbecco’s modified Eagle medium (Gibco, Grand Island, NY, USA) supplemented with 10% fetal calf serum, penicillin (100 U/mL) and streptomycin (100 μg/mL). All cultures were kept at 37 °C in 95% air/5% CO2 at 100% humidity. Phosphate-buffered saline (PBS) was purchased from Gibco. Cells were incubated at the indicated times at 37 °C with or without compounds 1–14 at various concentrations.
as §1, with “Cells were seeded into 96-well plates at a density of 10,000 cells/well for 24 h and then they were further incubated for 24 h with or without the quinones.” left out

[3] = Half-wave potentials by cyclic voltammetry; type: physicochemical; conditions: for −E^I½ (mV): acetonitrile, platinum electrode, room temperature, negative of the potential; for half-wave potential: signed value
Protocol: Calculation of lipophilicity (ClogP) and molar refractivity (CMR) was assessed by using the ChemBioDraw Ultra 11.0 software and the obtained values are shown in Table 3. Redox potentials of 2-phenylamino-3-acyl-1,4-naphtoquinones 1–14 were measured by cyclic voltammetry at room temperature in acetonitrile as solvent using a platinum electrode and 0.1M tetraethylammonium tetrafluoroborate as the supporting electrolyte.

[4] = test system: MCF-7 (mammary cancer cells); assay: MTT cell survival assay, MCF-7 mammary cancer cells; type: cell-based; conditions: Homo sapiens, MCF7; MTT test; cells incubated at 37 °C for 48 h (Table 1 footnote); mean ± SEM, n = 3
Protocol: as §2
as §1, with “Cells were seeded into 96-well plates at a density of 10,000 cells/well for 24 h and then they were further incubated for 24 h with or without the quinones.” left out

[5] = test system: non-tumorigenic HEK-293 (embryonic kidney cells); assay: MTT cell survival assay, non-tumorigenic HEK-293 cells; type: cell-based; conditions: Homo sapiens, HEK293; MTT test; cells incubated at 37 °C for 48 h (Table 1 footnote); mean ± SEM, n = 3
Protocol: as §2
as §1, with “Cells were seeded into 96-well plates at a density of 10,000 cells/well for 24 h and then they were further incubated for 24 h with or without the quinones.” left out

[6] = test system: DU-145, MCF-7 and T24 cancer cells; assay: Antiproliferative activity over DU-145, MCF-7 and T24 cancer cells; type: cell-based, human; conditions: Homo sapiens; summary of Table 1 (DU-145, MCF-7, T24); read-out: IC50 range over the cancer cell lines
Protocol: as §2, §1

[7] = test system: DU-145 (prostate cancer cells); assay: MTT cell survival assay, DU-145 prostate cancer cells; type: cell-based; conditions: Homo sapiens, MTT test, cells incubated at 37 °C for 48 h (Table 1 footnote), mean ± SEM, n = 3
Protocol: as §2
as §1, with “Cells were seeded into 96-well plates at a density of 10,000 cells/well for 24 h and then they were further incubated for 24 h with or without the quinones.” left out

| −E^I½ (mV) [3] [mV] | IC50 [6] [µM] | half-wave potential [3] [mV] | Structure (SMILES) | MSI (mean selective index) [1] | IC50 [2] [µM] | IC50 [4] [µM] | IC50 [5] [µM] | IC50 [7] [µM] |
| --- | --- | --- | --- | --- | --- | --- | --- | --- |
| 475 | 60.9 to 86.7 |  | CCCCCC(=O)C1=C(Nc2ccccc2)C(=O)c2ccccc2C1=O [Compound 1, 2-(Phenylamino)-3-hexanoylnaphthalene-1,4-dione] | 1.1 | 86.7 ± 2.52 | 62.68 ± 0.53 | 77.3 ± 3.66 | 60.89 ± 0.34 |
| 500 |  |  | COc1cccc(C(=O)C2=C(Nc3ccccc3)C(=O)c3ccccc3C2=O)c1 [Compound 5, 2-(Phenylamino)-3-(3-methoxybenzoyl)naphthalene-1,4-dione] | 3.2 | 12 ± 0.37 | 6.63 ± 0.13 | 30.8 ± 4.07 | 10.2 ± 0.95 |
| 800 |  |  | COc1ccc(C(=O)C2=C(Nc3ccccc3)C(=O)c3ccccc3C2=O)cc1 [Compound 6, 2-(Phenylamino)-3-(4-methoxybenzoyl)naphthalene-1,4-dione] | 2.6 | 13.3 ± 0.44 | 11.8 ± 0.54 | 38.9 ± 3.3 | 19.5 ± 0.95 |
| 604 |  |  | COc1ccc(C(=O)C2=C(Nc3ccccc3)C(=O)c3ccccc3C2=O)cc1OC [Compound 7, 2-(Phenylamino)-3-(3,4-dimethoxybenzoyl)naphthalene-1,4-dione] | 6.4 | 15.2 ± 0.88 | 10.6 ± 0.27 | 79.9 ± 10.4 | 11.9 ± 0.22 |
| 690 |  |  | COc1cc(C(=O)C2=C(Nc3ccccc3)C(=O)c3ccccc3C2=O)cc(OC)c1OC [Compound 8, 2-(Phenylamino)-3-(3,4,5-trimethoxybenzoyl)naphthalene-1,4-dione] | 4.7 | 7.14 ± 0.2 | 4.88 ± 0.52 | 37.4 ± 1.7 | 11.7 ± 0.29 |
| 595 |  |  | COc1cc(C(=O)C2=C(Nc3ccccc3)C(=O)c3ccccc3C2=O)ccc1O [Compound 9, 2-(Phenylamino)-3-(4-hydroxy-3-methoxybenzoyl)naphthalene-1,4-dione] | 4.5 | 13.8 ± 1.87 | 5.81 ± 0.71 | 47.7 ± 3.29 | 12.5 ± 0.55 |
| 770 |  |  | Cc1ccc(C(=O)C2=C(Nc3ccccc3)C(=O)c3ccccc3C2=O)cc1 [Compound 10, 2-(Phenylamino)-3-(4-methylbenzoyl)naphthalene-1,4-dione] | 5.0 | 21.5 ± 2.26 | 14.2 ± 0.53 | 78.8 ± 5.53 | 11.1 ± 0.57 |
| 552 |  | −552 | O=C(C1=C(Nc2ccccc2)C(=O)c2ccccc2C1=O)c1cccs1 [Compound 12] | 3.3 | 11.7 ± 0.89 | 4.2 ± 0.06 | 24.8 ± 1.41 | 6.97 ± 0.6 |
| 635 |  | −635 | O=C(C1=C(Nc2ccccc2)C(=O)c2ccccc2C1=O)c1ccsc1 [Compound 13, 2-(Phenylamino)-3-(thiophene-3-carbonyl)naphthalene-1,4-dione] | 2.1 | 13.8 ± 0.58 | 6.37 ± 0.23 | 20.4 ± 2.77 | 8.91 ± 0.82 |
| 685 |  | −685 | O=C(C1=C(Nc2ccccc2)C(=O)c2ccccc2C1=O)c1ccc[nH]1 [Compound 14, 2-(Phenylamino)-3-(1H-pyrrole-2-carbonyl)naphthalene-1,4-dione] | 0.9 | 21.7 ± 0.22 | 10.7 ± 0.35 | 13.7 ± 1.36 | 14.5 ± 0.25 |
|  |  |  | COc1cccc2c1C(=O)c1c(O)c3c(c(O)c1C2=O)C[C@@](O)(C(=O)CO)C[C@@H]3O[C@H]1C[C@H](N)[C@H](O)[C@H](C)O1 [DOX, Doxorubicin, reference compound] | 7.5 | 0.46 ± 0.08 | 0.33 ± 0.05 | 4.27 ± 0.34 | 0.93 ± 0.06 |
